Measured values from patent publication US20260306640A1, “TECHNOLOGIES TARGETING CELL STATES” (Auron Therapeutics, Inc., priority 2023, published 2026).

How the values were obtained:
Type in all cases: cell-based
KAT2A [1] = biological target: T1, KAT2A (Homo sapiens, UniProt Q92830); experiment: KAT2A degradation, Western Blot (Jess), MOLM-13 cells; set-up: degrader, Western blot; details: MOLM-13 cells, KAT2A, 24 h, Western Blot, vs DMSO; read-out: KAT2A MOLM-13 DC50
How it was run: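 MOLM-13 cells in RPMI 1640/20% FBS were treated with compound for 24 h at 37 °C. RIPA lysates (4 μg) were run on a capillary Western (Jess) with anti-KAT2A antibody and chemiluminescent detection. DC50 comes from percent protein reduction versus DMSO control.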

KAT2A [2] = biological target: T1, KAT2A; experiment: KAT2A degradation, Western Blot (Jess), NCI-H1048 cells; set-up: degrader, Western blot (Jess); details: NCI-H1048 cells, KAT2A, 24 h, Western Blot, vs DMSO; read-out: KAT2A NCI-H1048 DC50
How it was run: (§1)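 NCI-H1048 cells grown in HITES medium with 5% FBS were treated with compounds for 24 h at 37° C. Lysates were run by capillary Western (Jess) with KAT2A or KAT2B antibodies and chemiluminescent detection. DC50 derived from percent protein reduction versus DMSO control.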

KAT2B = KAT2B (Homo sapiens, UniProt Q92831); experiment: KAT2B degradation, Western Blot (Jess), NCI-H1048 cells; set-up: degrader, Western blot (Jess); details: NCI-H1048 cells, KAT2B, 24 h, Western Blot, vs DMSO; read-out: KAT2B NCI-H1048 DC50
Sequence of KAT2B (Q92831 whole entry): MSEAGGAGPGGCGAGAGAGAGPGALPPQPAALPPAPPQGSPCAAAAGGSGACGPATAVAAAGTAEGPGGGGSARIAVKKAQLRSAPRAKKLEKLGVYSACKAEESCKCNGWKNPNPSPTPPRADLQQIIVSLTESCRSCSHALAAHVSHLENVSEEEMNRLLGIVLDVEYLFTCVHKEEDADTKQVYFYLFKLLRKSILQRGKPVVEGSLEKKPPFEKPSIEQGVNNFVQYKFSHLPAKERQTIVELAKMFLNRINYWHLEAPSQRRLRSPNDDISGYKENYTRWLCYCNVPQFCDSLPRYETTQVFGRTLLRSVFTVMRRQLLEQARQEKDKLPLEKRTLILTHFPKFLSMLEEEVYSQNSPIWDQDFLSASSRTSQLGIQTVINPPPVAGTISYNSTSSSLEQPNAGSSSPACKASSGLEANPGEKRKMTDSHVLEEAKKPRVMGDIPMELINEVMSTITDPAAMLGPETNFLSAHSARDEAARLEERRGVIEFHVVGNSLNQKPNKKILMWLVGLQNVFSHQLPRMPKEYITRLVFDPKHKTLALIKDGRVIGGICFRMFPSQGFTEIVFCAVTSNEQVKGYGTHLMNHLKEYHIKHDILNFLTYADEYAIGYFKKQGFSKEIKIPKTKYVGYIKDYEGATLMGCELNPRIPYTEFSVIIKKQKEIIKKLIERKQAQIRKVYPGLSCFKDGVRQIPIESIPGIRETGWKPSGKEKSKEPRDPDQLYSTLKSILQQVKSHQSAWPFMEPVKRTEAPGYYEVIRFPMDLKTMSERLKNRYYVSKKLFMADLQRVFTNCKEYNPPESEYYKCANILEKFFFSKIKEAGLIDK
How it was run: as §1

T1 sequence (Q92830 whole entry): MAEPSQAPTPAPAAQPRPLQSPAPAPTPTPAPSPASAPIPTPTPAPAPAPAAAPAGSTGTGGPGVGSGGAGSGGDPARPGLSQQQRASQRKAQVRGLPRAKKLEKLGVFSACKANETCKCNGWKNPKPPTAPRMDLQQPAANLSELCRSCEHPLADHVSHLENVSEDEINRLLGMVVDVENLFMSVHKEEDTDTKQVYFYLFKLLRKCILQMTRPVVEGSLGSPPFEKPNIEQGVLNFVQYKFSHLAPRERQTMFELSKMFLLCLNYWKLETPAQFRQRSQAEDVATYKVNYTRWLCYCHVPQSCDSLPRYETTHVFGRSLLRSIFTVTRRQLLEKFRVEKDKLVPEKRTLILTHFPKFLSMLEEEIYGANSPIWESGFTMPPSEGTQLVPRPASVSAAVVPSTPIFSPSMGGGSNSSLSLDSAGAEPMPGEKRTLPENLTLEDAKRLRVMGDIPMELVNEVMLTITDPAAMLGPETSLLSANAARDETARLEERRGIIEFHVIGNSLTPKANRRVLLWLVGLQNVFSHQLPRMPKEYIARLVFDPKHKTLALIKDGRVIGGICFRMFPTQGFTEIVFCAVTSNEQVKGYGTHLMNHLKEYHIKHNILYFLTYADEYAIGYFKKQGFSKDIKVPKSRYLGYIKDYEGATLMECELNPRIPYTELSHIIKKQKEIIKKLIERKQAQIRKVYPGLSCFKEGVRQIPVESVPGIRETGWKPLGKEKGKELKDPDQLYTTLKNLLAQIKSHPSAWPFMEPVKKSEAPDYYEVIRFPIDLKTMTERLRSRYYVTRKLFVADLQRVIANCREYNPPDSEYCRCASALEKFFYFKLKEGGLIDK

CN1C[C@H](Nc2cnn(C)c(=O)c2Cl)C[C@H](c2ccc(C(=O)N3CC4(CC(Oc5ccc(C6CCC(=O)NC6=O)c(F)c5)C4)C3)cc2)C1 (stereo partly shown) [Compound 2-44] was tested, and the DC50 (KAT2A [1]) was 1 to 30 nM, the DC50 (KAT2A [2]) was less than 1 nM and the DC50 (KAT2B) was less than 1 nM.

CN1C[C@H](Nc2cnn(C)c(=O)c2Br)C[C@H](c2ccc(CN3CCN(c4ccc5c(c4)C(=O)N(C4CCC(=O)NC4=O)C5=O)CC3)cc2)C1 (stereo partly shown) [Compound 28] was tested, and the DC50 (KAT2A [1]) was less than 1 nM, the DC50 (KAT2A [2]) was less than 1 nM and the DC50 (KAT2B) was less than 1 nM.

Work on CN1C[C@H](Nc2cnn(C)c(=O)c2Br)C[C@H](c2ccc(CN3CCN(c4ccc5c(c4)CN(C4CCC(=O)NC4=O)C5=O)CC3)cc2)C1 (stereo partly shown) [Compound 67] yielded a DC50 (KAT2A [1]) of less than 1 nM, a DC50 (KAT2A [2]) of less than 1 nM and a DC50 (KAT2B) of less than 1 nM.

CN1C[C@H](Nc2cnn(C)c(=O)c2Cl)C[C@H](c2ccc(CN3CCN(c4ccc5c(c4)CN(C4CCC(=O)NC4=O)C5=O)CC3)cc2)C1 (stereo partly shown) [Compound 72] gave a DC50 (KAT2A [1]) of less than 1 nM, a DC50 (KAT2A [2]) of less than 1 nM and a DC50 (KAT2B) of less than 1 nM.

Compound CN1C[C@H](Nc2cnn(C)c(=O)c2Cl)C[C@H](c2ccc(COc3ccc4c(c3)C(=O)N(C3CCC(=O)NC3=O)C4=O)cc2)C1 (stereo partly shown) [Compound 110] has a DC50 (KAT2A [1]) of 1 to 30 nM, a DC50 (KAT2A [2]) of 1 to 30 nM and a DC50 (KAT2B) of 1 to 30 nM.

Cc1cc(OC2CCN(C(=O)c3ccc([C@H]4C[C@@H](Nc5cnn(C)c(=O)c5Br)CN(C)C4)cc3)CC2)ccc1C1CCC(=O)NC1=O (stereo partly shown) [Compound 114] gave a DC50 (KAT2A [1]) of less than 1 nM, a DC50 (KAT2A [2]) of less than 1 nM and a DC50 (KAT2B) greater than 30 nM.

For CN1C[C@H](Nc2cnn(C)c(=O)c2Br)C[C@H](c2ccc(C(=O)N3CCC(Oc4cccc(C5CCC(=O)NC5=O)c4)CC3)cc2)C1 (stereo partly shown) [Compound 120], the DC50 (KAT2A [1]) was 1 to 30 nM, the DC50 (KAT2A [2]) was less than 1 nM and the DC50 (KAT2B) was greater than 30 nM.

Cc1cc(OC2CCN(Cc3ccc([C@H]4C[C@@H](Nc5cnn(C)c(=O)c5Br)CN(C)C4)cc3)CC2)ccc1C1CCC(=O)NC1=O (stereo partly shown) [Compound 123] was tested, and the DC50 (KAT2A [1]) was less than 1 nM, the DC50 (KAT2A [2]) was less than 1 nM and the DC50 (KAT2B) was greater than 30 nM.

CN1C[C@H](Nc2cnn(C)c(=O)c2Br)C[C@H](c2ccc(C(=O)N3CCC(Oc4ccc(C5CCC(=O)NC5=O)cc4F)CC3)cc2)C1 (stereo partly shown) [Compound 124] showed a DC50 (KAT2A [1]) of less than 1 nM, a DC50 (KAT2A [2]) of less than 1 nM and a DC50 (KAT2B) of 1 to 30 nM.

Compound CN1C[C@H](Nc2cnn(C)c(=O)c2Br)C[C@H](c2ccc(CN3CCC(Oc4ccc(C5CCC(=O)NC5=O)cc4F)CC3)cc2)C1 (stereo partly shown) [Compound 125] has a DC50 (KAT2A [1]) of less than 1 nM, a DC50 (KAT2A [2]) of less than 1 nM and a DC50 (KAT2B) greater than 30 nM.

With CN1C[C@H](Nc2cnn(C)c(=O)c2Br)C[C@H](c2ccc(C(=O)N3CCC4(CC3)CN(c3ccc(C5CCC(=O)NC5=O)cc3)C4)cc2)C1 (stereo partly shown) [Compound 126] the DC50 (KAT2A [1]) was less than 1 nM, the DC50 (KAT2A [2]) was less than 1 nM and the DC50 (KAT2B) was 1 to 30 nM.

CN1C[C@H](Nc2cnn(C)c(=O)c2Br)C[C@H](c2ccc(CN3CCN(c4ccc(F)c(C5CCC(=O)NC5=O)c4)CC3)cc2)C1 (stereo partly shown) [Compound 152] showed a DC50 (KAT2A [1]) of 1 to 30 nM, a DC50 (KAT2A [2]) of less than 1 nM and a DC50 (KAT2B) of 1 to 30 nM.

Compound CN1C[C@H](Nc2cnn(C)c(=O)c2Cl)C[C@H](c2ccc(CN3CCC4(CC3)CCN(c3ccc(C5CCC(=O)NC5=O)cc3)CC4)cc2)C1 (stereo partly shown) [Compound 155] has a DC50 (KAT2A [1]) of less than 1 nM, a DC50 (KAT2A [2]) of less than 1 nM and a DC50 (KAT2B) of less than 1 nM.

With CN1C[C@H](Nc2cnn(C)c(=O)c2Cl)C[C@H](c2ccc(CN3CCN(c4cccc(C5CCC(=O)NC5=O)c4)CC3)cc2)C1 (stereo partly shown) [Compound 162] the DC50 (KAT2A [1]) was less than 1 nM, the DC50 (KAT2A [2]) was less than 1 nM and the DC50 (KAT2B) was 1 to 30 nM.

In the case of CN1C[C@H](Nc2cnn(C)c(=O)c2Cl)C[C@H](c2ccc(CN3CCC(Oc4ccc(C5CCC(=O)NC5=O)cc4)CC3)cc2)C1 (stereo partly shown) [Compound 168], the DC50 (KAT2A [1]) is reported as less than 1 nM, the DC50 (KAT2A [2]) is reported as less than 1 nM and the DC50 (KAT2B) is reported as 1 to 30 nM.

CN1C[C@H](Nc2cnn(C)c(=O)c2Cl)C[C@H](c2ccc(CN3CCN(c4ccc5c(c4)C(=O)N(C4CCC(=O)NC4=O)C5=O)CC3)cc2)C1 (stereo partly shown) [Compound 175] was tested, and the DC50 (KAT2A [1]) was less than 1 nM, the DC50 (KAT2A [2]) was less than 1 nM and the DC50 (KAT2B) was 1 to 30 nM.

In the case of CN1C[C@H](Nc2cnn(C)c(=O)c2Br)C[C@H](c2ccc(CN3CC(Oc4cccc(C5CCC(=O)NC5=O)c4)C3)cc2)C1 (stereo partly shown) [Compound 184], the DC50 (KAT2A [1]) is reported as 1 to 30 nM, the DC50 (KAT2A [2]) is reported as less than 1 nM and the DC50 (KAT2B) is reported as greater than 30 nM.

For CN1C[C@H](Nc2cnn(C)c(=O)c2Br)C[C@H](c2ccc(C(=O)N3CC(Oc4cccc(C5CCC(=O)NC5=O)c4)C3)cc2)C1 (stereo partly shown) [Compound 185], the DC50 (KAT2A [1]) was less than 1 nM.
